In PubChem BioAssay (NCI):
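The compound was tested at five concentrations on cells cultured in 96-well plates, with a 48-hour exposure period. Definition used: TGI = concentration required for complete inhibition of growth.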

What was measured:
Assay in all cases: NCI-60 cell line screen, 48 h
[1] = system: HOP-62 NSCLC
[2] = system: ACHN renal
[3] = system: DMS 114 small cell lung
[4] = system: MOLT-4 leukemia
[5] = system: OVCAR-4 ovarian
[6] = system: UO-31 renal
[7] = system: DLD-1 colon
[8] = system: 786-0 renal
[9] = system: A498 renal
[10] = system: SK-MEL-2 melanoma
[11] = system: OVCAR-5 ovarian
[12] = system: RPMI-8226 leukemia
[13] = system: KM12 colon
[14] = system: HCC-2998 colon
[15] = system: IGROV1 ovarian
[16] = system: SNB-78 CNS
[17] = system: HCT-116 colon
[18] = system: NCI-H460 lung
[19] = system: EKVX NSCLC
[20] = system: UACC-62 melanoma
[21] = system: OVCAR-3 ovarian
[22] = system: U251 CNS
[23] = system: SK-MEL-28 melanoma
[24] = system: LXFL 529 NSCLC
[25] = system: SF-268 CNS
[26] = system: K-562 leukemia
[27] = system: TK-10 renal
[28] = system: HT29 colon
[29] = system: SR leukemia
[30] = system: UACC-257 melanoma
[31] = system: COLO 205 colon
[32] = system: HL-60(TB) leukemia
[33] = system: SF-539 CNS
[34] = system: NCI-H522 lung
[35] = system: DMS 273 small cell lung
[36] = system: SNB-19 CNS
[37] = system: KM20L2 colon
[38] = system: CCRF-CEM leukemia
[39] = system: CAKI-1 renal
[40] = system: HCT-15 colon
[41] = system: LOX IMVI melanoma
[42] = system: SF-295 CNS
[43] = system: RXF-631 renal
[44] = system: SW-620 colon
[45] = system: OVCAR-8 ovarian
[46] = system: RXF 393 renal
[47] = system: SN12C renal
[48] = system: NCI-H226 lung
[49] = system: M14 melanoma
[50] = system: A549 NSCLC
[51] = system: SNB-75 CNS
[52] = system: NCI-H23 lung
[53] = system: SK-OV-3 ovarian
[54] = system: HOP-18 NSCLC
[55] = system: XF 498 CNS
[56] = system: HOP-92 NSCLC
[57] = system: MALME-3M melanoma
[58] = system: M19-MEL melanoma
[59] = system: SK-MEL-5 melanoma

Measured: TGI

COc1ccc2c(CCNC(C)=O)c(C(C)=O)[nH]c2c1
> 100 µM: [1] | [2] | [3] | [4] | [5] | [6] | [7] | [8] | [9] | [10] | [11] | [12] | [13] | [14] | [15] | [16] | [17] | [18] | [19] | [20] | [21] | [22] | [23] | [24] | [25] | [26] | [27] | [28] | [29] | [30] | [31] | [32] | [33] | [34] | [35] | [36] | [37] | [38] | [39] | [40] | [41] | [42] | [43] | [44] | [45] | [46] | [47] | [48] | [49] | [50] | [51]

COC(=O)/C=C/C1C2C3(CCC(C)C12C)OCCS3 (stereo unspecified)
> 100 µM: [1] | [2] | [3] | [4] | [52] | [5] | [6] | [7] | [8] | [9] | [10] | [11] | [13] | [14] | [15] | [16] | [17] | [18] | [19] | [21] | [22] | [23] | [24] | [25] | [26] | [27] | [28] | [29] | [30] | [31] | [32] | [53] | [33] | [54] | [55] | [34] | [35] | [36] | [37] | [56] | [38] | [57] | [58] | [40] | [41] | [42] | [59] | [44] | [45] | [46] | [47] | [48] | [49] | [50] | [51]
